Read-outs that look alike come from different tables or passages of the source. Where no end group is shown, it is not given here.
Experiments:
[1] = phase II, cited from earlier work
CETP = target: T1, CETP (Homo sapiens, UniProt P11597); details: phase II, group with the highest dose; cited from earlier work
T1 construct: host or cells: trial subjects' plasma (not described)
T1 sequence (P11597 18-493): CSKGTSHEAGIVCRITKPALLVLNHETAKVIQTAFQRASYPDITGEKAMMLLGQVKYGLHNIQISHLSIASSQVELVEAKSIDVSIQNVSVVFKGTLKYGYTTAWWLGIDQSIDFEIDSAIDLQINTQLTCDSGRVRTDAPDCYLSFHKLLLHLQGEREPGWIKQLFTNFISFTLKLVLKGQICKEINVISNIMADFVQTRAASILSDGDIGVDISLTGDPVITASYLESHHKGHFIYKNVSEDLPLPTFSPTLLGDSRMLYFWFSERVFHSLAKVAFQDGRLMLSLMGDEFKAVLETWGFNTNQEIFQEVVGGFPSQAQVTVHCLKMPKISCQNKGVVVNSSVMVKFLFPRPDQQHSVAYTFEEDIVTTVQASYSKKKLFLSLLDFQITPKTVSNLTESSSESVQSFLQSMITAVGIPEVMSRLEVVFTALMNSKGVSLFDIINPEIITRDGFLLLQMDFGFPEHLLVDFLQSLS

[2] = phase III, treatment group receiving combination with atorvastatin; cited from earlier work
[3] = target: C-terminus peptide of CETP (Homo sapiens, UniProt P11597)
[4] = pH 9.5
[5] = target: 10 nm-diameter nascent discoid HDL particles; details: cited from earlier work

Question: What does the source list for `COc1cc(F)c(C(C)C)cc1-c1ccc(C(F)(F)F)cc1CN1C(=O)O[C@H](c2cc(C(F)(F)F)cc(C(F)(F)F)c2)[C@@H]1C` [Anacetrapib]?
Answer: blood pressure ([1]; all cohorts): without the corresponding increase in blood pressure; increase in HDL, average ([1]; dose 10 mg): 44%; increase in HDL, average ([1]; dose 40 mg): 86%; increase in HDL, average ([1]; dose 150 mg): 139%; increase in HDL, average ([1]; dose 300 mg): 133%

Question: With `CCC(CC)CC1(C(=O)Nc2ccccc2SC(=O)C(C)C)CCCCC1` [Dalcetrapib] as the molecule, how does the CETP activity decreased (CETP) read?
Answer: 36%

Question: What about the HDL cholesterol increased (CETP) of the same molecule?
Answer: 34%

Question: For `CCOC(=O)N1c2ccc(C(F)(F)F)cc2[C@@H](N(Cc2cc(C(F)(F)F)cc(C(F)(F)F)c2)C(=O)OC)C[C@H]1CC` [Torcetrapib], which “mortality and cardiovascular events” value [2] is on record?
Answer: cases of mortality and cardiovascular events

Question: For `CCCCCCCCCCCC(=O)OC[C@@H](O)COP(=O)([O-])OCC[N+](C)(C)C` [lysophosphatidylcholine (C12), 1-Lauril-2-Hydroxi-snglycero 3 phosphocholine], which “secondary structure of the antigen peptide” value [3] is on record?
Answer: favored the presentation of the α-helix structure

Question: Which “solubility and monomeric state of peptide” value [4] does the source give for CHLLVDFLQSLS [Y-helix] here?
Answer: allows solubility and keeps the peptide in monomeric state

B1: CETP: proatherogenic hydrophobic glycoprotein that transfers cholesteryl esters and triglycerides among lipoproteins (protein, UniProt P11597 18-493, looked up)
Cholesteryl ester transfer …: CSKGTSHEAGIVCRITKPALLVLNHETAKVIQTAFQRASYPDITGEKAMMLLGQVKYGLHNIQISHLSIASSQVELVEAKSIDVSIQNVSVVFKGTLKYGYTTAWWLGIDQSIDFEIDSAIDLQINTQLTCDSGRVRTDAPDCYLSFHKLLLHLQGEREPGWIKQLFTNFISFTLKLVLKGQICKEINVISNIMADFVQTRAASILSDGDIGVDISLTGDPVITASYLESHHKGHFIYKNVSEDLPLPTFSPTLLGDSRMLYFWFSERVFHSLAKVAFQDGRLMLSLMGDEFKAVLETWGFNTNQEIFQEVVGGFPSQAQVTVHCLKMPKISCQNKGVVVNSSVMVKFLFPRPDQQHSVAYTFEEDIVTTVQASYSKKKLFLSLLDFQITPKTVSNLTESSSESVQSFLQSMITAVGIPEVMSRLEVVFTALMNSKGVSLFDIINPEIITRDGFLLLQMDFGFPEHLLVDFLQSLS
Question: For B1, which Kd [5] is on record?
Answer: 20 to 120 nM

Source: patent publication US9539312B2 (UNIVERSIDAD NACIONAL AUTÓNOMA DE MÉXICO, priority 2012, dated 2017)
